# Experimental data published in patent publication US5288705A, “Manipulation of ovulation and spawning in fish” (Israel Oceanographic & Limnological Research Ltd., priority 1988, dated 1994).
# Assays:
# Format in all cases: in vivo
# [1] = test system: Female seabream (Sparus aurata); test: Spawning activity of treated females kept with two males (Example 1); conditions: spawning activity = tens of thousands of fertilized eggs per day over more than one week
# Description: (§1) Female seabream (Sparus aurata) reaching final stages of vitellogenesis received one of the following treatment of GnRHa - an analog of mammalian GNRH ([D-Ala^6 -Pro^9 -NET]-LHRH):
# (§2) 1. An intramuscular injection of GnRHa in a saline solution (10 μg GnRHa/kg body weight which is an acceptable amount for injection);
# (§3) 2. Implantation of a Silastic implant (Sila.) according to Crim et al., 1986, containing GnRHa (150 μg GnRHa/fish);
# (§4) 3. Implantation of a biodegradable copolymer of polylacticpolyglycolic acid (Z. implant) containing GnRHa (150 μg GnRHa/fish);
# (§5) 4. Placebo injection of saline (Control).
# Additionally, several treated, non-bled females from each treatment group were kept, each in a separate container, which was connected to an egg collector, together with two males. The females were followed for their spawning activity, which was defined in this experiment as tens of thousands of fertilized eggs collected per day over a period of more than one week.
# [2] = test system: females of rainbow trout, Salmo gaixdneri; test: Occurrence of ovulation monitored by ovarian biopsy (Example 4)
# Description: (§6) 24 females of rainbow trout, Salmo gaixdneri, were divided into four groups, six fish in each group. Each group received one of the following treatments:
# (§7) 1. Injection of the mammalian GnRHa as in Example 1 ([…] body weight), in saline;
# (§8) 2. Administration of a biodegradable copolymer of polylactic-polyglycolic acid containing the same GnRHa (150 mg/fish 150 μg/fish) in pellets, implanted under the fish's skin;
# (§9) 3. Ethylene vinyl acetate copolymer pellets containing a fish GnRH analog (GNRHH) - [D-Arg^6 -Pro^9 -NET]sGnRH (150 mg/fish 150 μg/fish),implanted under the skin;
# An additional four groups of 20 females in each group, undergoing advanced stages of vitellogenesis, were treated as above and used for monitoring the state of ovarian development and the occurrence of ovulation. An overian biopsy was sampled from these females every 2 to 4 days for 30 days post-treatment.
# [3] = test system: Female seabream (Sparus aurata); test: Plasma GtH levels by specific homologous radioimmunoassay after GnRHa administration (Example 1); conditions: FIG. 1
# Description: as §1, §2, §3, §4, §5
# Before the treatment and at various intervals thereafter, the fish were bled. After withdrawing a blood sample the fish were returned into the water. GtH levels were determined in the withdrawn blood sample by specific homologous radioimmunoassay. The results are shown in FIG. 1 of the annexed drawings.
# [4] = test system: females of rainbow trout, Salmo gaixdneri; test: Blood GtH levels after hormone administration (Example 4)
# Description: as §6, §7, §8, §9
# All fish were bled before and at different intervals after hormone administration, for the determination of blood GtH levels, similarly as in Example 1.
substance,measurement,setting,value
[D-Ala^6 -Pro^9 -NET]-LHRH [Group 1],percentage of the females showing spawning activity,[1],25%
same,degree of ovulation (in percent of ovulated females),[2]; 6 days post treatment,30%
same,degree of ovulation (in percent of ovulated females),[2]; 9 days post treatment,40%
same,degree of ovulation (in percent of ovulated females),[2]; 30 days post treatment,60%
same,acceleration / synchronization of ovulation,[2]; versus control group,did not accelerate or synchronize ovulation
same,plasma GtH level / GtH release,[3],decreased rapidly
same,period of GtH level surge in plasma,[4],about 48 hrs.
